Source: patent US8618286B2, “Benzoxazines, benzothiazines, and related compounds having NOS inhibitory activity” (NeurAxon, Inc., priority 2008, dated 2013)

Assays:
[1] = target: Nitric oxide synthase (neuronal, human recombinant) nNOS (Homo sapiens (Human), UniProt P29475); assay: Human nNOS enzyme assay ([3H]-L-arginine to L-citrulline conversion); assay type: biochemical; conditions: for Selectivity eNOS/nNOS: ratio of human eNOS IC50 to human nNOS IC50; for IC50: recombinant human nNOS
Description: (§1) nNOS (Human), eNOS (Human) and iNOS (Human) Enzyme Assay
(§2) Primary stock solutions of test compounds at a concentration of 6 mM were prepared from the 2 to 5 mg powder. The primary stock solutions of each test compound were prepared freshly in distilled water on the day of study to obtain a final concentration of 6 mM. For determination of IC50 values, 12 test compound concentrations were prepared as 3-fold serial dilutions. Concentration range of test compound utilized for nNOS were 0.001 to 300 μM and for eNOS were 0.003 to 1000 μM. The vehicle of the test compound or inhibitor was used as blank control. For non-specific activity, 100 μM L-NMMA was used. Runs using the IC50 concentration of L-NAME were done in parallel as controls.
(§3) All incubations are performed in duplicate
(§4) The reaction mixture was prepared on ice by adding the following components with a micropipette to a polypropylene microcentrifuge tube: • 10 μL of test compound, inhibitor or control (vehicle or L-NMMA) solution; • 25 μL of Reaction Buffer {25 mM Tris-HCl, 0.6 μM BH4, 0.2 μM FMN, 0.2 μM FAD}; • 5 μL of 10 mM NADPH solution {1 mM} (freshly prepared in 10 mM Tris-HCl (pH 7.4); • 5 μL of 6 mM CaCl2 {600 W}; • 5 μL of 1 mM Calmodulin {100 W}; and • 5 μL of 0.02 μg/μL nNOS or 0.12 μg/μL eNOS.
(§5) The above reaction mixture was pre-incubated at room temperature for 15 mins.
(§6) The reaction was started by the addition of the substrate (in 5 μL containing 1 μCi of [^3H]-L-Arginine+2.5 μM of unlabeled L-Arginine) to the reaction mixture. Total reaction volume is 60 μL.
(§7) The reaction was mixed using a vortex mixer and incubate the above reaction mixture at 37° C. in an incubator for 30 minutes.
(§8) To stop the reaction, 400 μL of ice-cold Stop Buffer was added at the end of the incubation period.
(§9) The reaction was then mixed using a vortex mixer, and the reaction samples were transferred to spin cups, which were centrifuged using a microcentrifuge, at 13,000 rpm for 30 sec. at room temperature.
(§10) The spin cups were removed from the holder, 450 μL of eluate (containing the unbound L-citrulline) were transferred to scintillation vials. 3 mL of scintillation fluid were added and the radioactivity was quantified in a liquid scintillation counter.
(§11) Data was analyzed using a Sigmoidal dose-response (variable slope) curve to determine the IC50 value of the test compound. Y=Bottom+(Top−Bottom)/(1+10^((Log IC50−X)*Hill Slope))

[2] = target: Nitric oxide synthase (endothelial, human recombinant) eNOS (Homo sapiens (Human), UniProt P29474); assay: Human eNOS enzyme assay ([3H]-L-arginine to L-citrulline conversion); assay type: biochemical
Description: as §1, §2, §3, §4, §5, §6, §7, §8, §9, §10, §11

[3] = target: Recombinant human inducible NOS (iNOS) (Homo sapiens (Human), UniProt P35228); assay: Human iNOS enzyme assay (Protocol 1 or Protocol 2, radiometric); assay type: biochemical
Description: The human iNOS assay was carried by either one of the two protocols as described herein:
Recombinant human inducible NOS (iNOS) was produced in Baculovirus-infected Sf9 cells (ALEXIS). In a radiometric method, NO synthase activity was determined by measuring the conversion of [^3H]L-arginine to [^3H]L-citrulline. To measure iNOS, 10 μL of enzyme was added to 100 μL of 100 mM HEPES, pH=7.4, containing 1 mM CaCl2, 1 mM EDTA, 1 mM dithiothreitol, 1 μM FMN, 1 μM FAD, 10 μM tetrahydrobiopterin, 120 μM NADPH, and 100 nM CaM.
To measure enzyme inhibition, a 15 μL solution of a test substance was added to the enzyme assay solution, followed by a pre-incubation time of 15 min at RT. The reaction was initiated by addition of 20 μL L-arginine containing 0.25 μCi of [^3H] arginine/mL and 24 μM L-arginine. The total volume of the reaction mixture was 150 μL in every well. The reactions were carried out at 37° C. for 45 minutes, The reaction was stopped by adding 20 μL of ice-cold buffer containing 100 mM HEPES, 3 mM EGTA, 3 mM EDTA, pH=5.5. [^3H]L-citrulline was separated by DOWEX (ion-exchange resin DOWEX 50 W×8-400, SIGMA) and the DOWEX was removed by spinning at 12,000 g for 10 min in the centrifuge. An aliquot (70 μL) of the supernatant was added to 100 μL of scintillation fluid, and the samples were counted in a liquid scintillation counter (1450 Microbeta Jet, Wallac). Specific NOS activity was reported as the difference between the activity recovered from the test solution and that observed in a control sample containing 240 mM of the inhibitor L-NMMA. All assays were performed at least in duplicate. Standard deviations are 10% or less.
Primary stock solutions of each test compound were prepared in distilled water on the day of study to obtain a final concentration of 6 mM. For the determination of IC50 values, 11 test compound concentrations were prepared as 3-fold serial dilutions. Test compounds were tested in the iNOS assay at a concentration of 1000 μM to 0.0169 μM. The vehicle of the test compound or inhibitor, distilled water, was used as blank control. For non-specific activity, 100 μM L-NMMA was run in parallel as a control.
All incubations were performed in duplicate
The reaction mixture was prepared on ice by the addition of the following components to the appropriate well of a 1.0 mL 96-well polypropylene plate:
10 μL of test compound, reference inhibitor, or control (vehicle or L-NMMA) solution;
25 μL of Reaction Buffer (50 mM Tris-HCl, 6 μM BH4, 2 μM FMN, 2 μM FAD);
5 μL of 10 mM NADPH solution;
5 μL of 1 μM Calmodulin; and
The reaction mixture was pre-incubated at room temperature for 15 minutes. Following this pre-incubation, the reaction was initiated by the addition of 5 μL of the substrate L-arginine (1 μCi of [^3H]-L-Arginine+30 μM of unlabeled L-Arginine) to the reaction mixture. The total reaction volume was 60 μL. The assay plate containing the reaction mixtures was sealed and incubated at 37° C. for 30 minutes. At the end of this incubation period, 400 μL of ice-cold Stop Buffer (the EDTA in the Stop Buffer chelates all of the available calcium) was added to each well to stop the reaction. 100 μL of equilibrated resin pH 5.5 was added to each of the assay wells. The reaction samples were vortexed and transferred to spin cups, after-which they were centrifuged at 13,000 rpm for 30 sec. The spin cups were removed from the holder and […] (containing the unbound L-citrulline) were added to the appropriate wells of a 96-well liquid scintillation plate. 175 μL of scintillation fluid were also added to each well. The plate was sealed, and radioactivity was quantitated using a Microbeta liquid scintillation counter.
Data were analyzed using a Sigmoidal dose-response (variable slope) curve to determine the IC50 value of the test compound. Y=Bottom+(Top−Bottom)/(1+10^((Log IC50−X)*Hill Slope))

cardiogenic shock = conditions: human, randomized trial of 30 patients; reduced from 67%; cited from earlier work
persistent shock = conditions: human, up to 30 days; cited from earlier work
migraine = conditions: human, single i.v. administration; cited from earlier work
migraine attack = conditions: human, open pilot study; cited from earlier work

Selectivity eNOS/nNOS [1]	IC50 [1] [µM]	IC50 [2] [µM]	IC50 [3] [µM]	Structure (SMILES)	patient mortality (cardiogenic shock) [%]	survival rate (persistent shock) [%]	response rate (migraine) [%]	patients with a reduction in the frequency of migraine attack of 50% (migraine attack) [%]
676	0.14	94.7	136	CN(C)CCN1CCSc2cc(NC(=N)c3ccco3)ccc21 [Compound 19, N-(4-(2-(dimethylamino)ethyl)-3,4-dihydro-2H-benzo[b][1,4]thiazin-7-yl)furan-2-carboximidamide]	–	–	–	–
290	0.16	46.4	268	CNCCN1CCSc2cc(NC(=N)c3ccco3)ccc21 [Compound 20, N-(4-(2-(methylamino)ethyl)-3,4-dihydro-2H-benzo[b][1,4]thiazin-7-yl)furan-2-carboximidamide]	–	–	–	–
71.4	0.14	10	49.6	N=C(Nc1ccc2c(c1)SCCN2CCCN1CCCC1)c1cccs1 [Compound 21, N-(4-(3-(pyrrolidin-1-yl)propyl)-3,4-dihydro-2H-benzo[b][1,4]thiazin-7-yl)thiophene-2-carboximidamide]	–	–	–	–
864	0.014	12.1	115	CN(C)CCCN1CCSc2cc(NC(=N)c3cccs3)ccc21 [Compound 22, N-(4-(3-(Dimethylamino)propyl)-3,4-dihydro-2H-benzo[b][1,4]thiazin-7-yl)thiophene-2-carboximidamide]	–	–	–	–
664	0.028	18.6	172	CNCCCN1CCSc2cc(NC(=N)c3cccs3)ccc21 [Compound 23, N-(4-(3-(methylamino)propyl)-3,4-dihydro-2H-benzo[b][1,4]thiazin-7-yl)thiophene-2-carboximidamide]	–	–	–	–
89	0.05	4.45	82.3	CCNCCN1CCSc2ccc(NC(=N)c3cccs3)cc21 [Compound 24, N-(4-(2-(ethylamino)ethyl)-3,4-dihydro-2H-benzo[b][1,4]thiazin-6-yl)thiophene-2-carboximidamide]	–	–	–	–
90.5	0.2	18.1	43.6	N=C(Nc1ccc2c(c1)N(CCN1CCCC1)CCS2)c1cccs1 [Compound 25, N-(4-(2-(pyrrolidin-1-yl)ethyl)-3,4-dihydro-2H-benzo[b][1,4]thiazin-6-yl)thiophene-2-carboximidamide]	–	–	–	–
56.5	0.15	8.48	60.1	N=C(Nc1ccc2c(c1)N(CCNCCO)CCS2)c1cccs1 [Compound 26, N-(4-(2-(2-hydroxyethylamino)ethyl)-3,4-dihydro-2H-benzo[b][1,4]thiazin-6-yl)thiophene-2-carboximidamide]	–	–	–	–
268.4	0.13	34.9	66.5	CN(C)CCN1CCSc2ccc(NC(=N)c3cccs3)cc21 [Compound 27, N-(4-(2-(dimethylamino)ethyl)-3,4-dihydro-2H-benzo[b][1,4]thiazin-6-yl)thiophene-2-carboximidamide]	–	–	–	–
107.2	0.08	8.58	348	CNCCN1CCSc2ccc(NC(=N)c3cccs3)cc21 [Compound 28, N-(4-(2-(methylamino)ethyl)-3,4-dihydro-2H-benzo[b][1,4]thiazin-6-yl)thiophene-2-carboximidamide]	–	–	–	–
396	0.11	43.6	76.8	N=C(Nc1ccc2c(c1)N(C1CCNCC1)CCS2)c1cccs1 [Compound 29, N-(4-(piperidin-4-yl)-3,4-dihydro-2H-benzo[b][1,4]thiazin-6-yl)thiophene-2-carboximidamide]	–	–	–	–
–	–	–	–	COC(=O)[C@@H](N)CCCNC(=N)N[N+](=O)[O-] [L-NAME, N^G-Nitro-L-arginine methyl ester]	27	–	–	–
–	–	–	–	CN=C(N)NCCC[C@H](N)C(=O)O.Cl [L-NMMA, L-N^G methylarginine hydrochloride]	–	72	67	–
–	–	–	–	C/C1=C2/[N-][C@H]([C@H](CC(N)=O)[C@@]2(C)CCC(=O)NC[C@@H](C)OP(=O)([O-])O[C@H]2[C@@H](O)[C@@H](n3cnc4cc(C)c(C)cc43)O[C@@H]2CO)[C@]2(C)N=C(/C(C)=C3N=C(/C=C4N=C1[C@@H](CCC(N)=O)C\4(C)C)[C@@H](CCC(N)=O)[C@]\3(C)CC(N)=O)[C@@H](CCC(N)=O)[C@]2(C)CC(N)=O.[Co+3].[OH-] [hydroxycobalamin]	–	–	–	53
